We go through 15 compounds from patent US20250236603A1, “SOLID FORMS OF ALECTINIB AND ALECTINIB SALTS” (Synthon B.V., priority 2022, published 2025).

Like-named read-outs stand apart in the source and are kept apart here.

For data set [1] the following is noted: pH 1.2.
Experimental: (§1) 20 mg of the Alectinib salt was mixed 10 ml of a mixture of buffer pH 1.2 and 4% Triton X-100. The mixture was placed into a stirring carousel at temperature +37° C. and 100 rpm. After 1 hour and 4 hours about 1 mL of each sample was taken and filtered through a 0.45 μm filter into a vial. Then each sample was diluted with Solvent solution to get signal of absorbance ≤1 at 265 nm, transferred into a vial and measured by HPLC method.
(§2) 20 mg of the Alectinib salt was mixed 10 ml of a mixture of buffer pH 1.2 and 4% Triton X-100. The mixture was placed into a stirring carousel at temperature+37° C. and 100 rpm. After 1 hour and 4 hours about 1 mL of each sample was taken and filtered through a 0.45 μm filter into a vial. Then each sample was diluted with Solvent solution to get signal of absorbance≤1 at 265 nm, transferred into a vial and measured by HPLC method.
Data set [2] is described as follows: Solubilities of prepared salts (buffer pH 1.2 with 4% Triton X-100, HPLC). The conditions noted are these: 100 rpm.
Experimental: as §1, §2
[3] abbreviates: Example 18, 20 mg salt in 10 ml buffer pH 1.2 and 4% Triton X-100, +37° C., maleate salt.
The mark [4] stands for this setting: Example 18, 20 mg salt in 10 ml buffer pH 1.2 and 4% Triton X-100, +37° C.
The mark [5] stands for this setting: Example 10, 20 mg salt in 10 ml buffer pH 1.2 and 4% Triton X-100, +37° C.
The mark [6] stands for this setting: Example 28, 20 mg salt in 10 ml buffer pH 1.2 and 4% Triton X-100, +37° C.
The mark [7] stands for this setting: Example 10, 20 mg salt in 10 ml buffer pH 1.2 and 4% Triton X-100, +37° C., acetate salt.

For the compound `CCc1cc2c(cc1N1CCC(N3CCOCC3)CC1)C(C)(C)c1[nH]c3cc(C#N)ccc3c1C2=O.CS(=O)(=O)O` [Methane sulfonate salt, Form 13, Alectinib methane sulfonate salt], the “Solubility after 1 hour” value in data set [1] came to 1300 µg/mL.
Same read-out and setting: as for `CCc1cc2c(cc1N1CCC(N3CCOCC3)CC1)C(C)(C)c1[nH]c3cc(C#N)ccc3c1C2=O.CS(=O)(=O)O` [Methane sulfonate salt, Form 3, Alectinib methane sulfonate salt], the figure is 1210 µg/mL.
Consider `CCc1cc2c(cc1N1CCC(N3CCOCC3)CC1)C(C)(C)c1[nH]c3cc(C#N)ccc3c1C2=O.O=C(O)C=CC(=O)O` [Hydrogen maleate salt, Form 2, Alectinib hydrogen maleate salt], for which the “Solubility after 1 hour” value in data set [2] (setting [3]) amounted to 1260 µg/mL.
As to `CCc1cc2c(cc1N1CCC(N3CCOCC3)CC1)C(C)(C)c1[nH]c3cc(C#N)ccc3c1C2=O.CS(=O)(=O)O` [Methane sulfonate salt, Form 14, Alectinib methane sulfonate salt], the “Solubility after 1 hour” value in data set [1] is 1320 µg/mL.
For the compound “Alectinib tartrate salt [Tartrate, Form 8]”, the “Solubility after 1 hour” value in data set [2] (setting [4]) was determined as 1230 µg/mL.
Take `CCc1cc2c(cc1N1CCC(N3CCOCC3)CC1)C(C)(C)c1[nH]c3cc(C#N)ccc3c1C2=O.CS(=O)(=O)O` [Methane sulfonate salt, Form 12, Alectinib methane sulfonate salt]: the “Solubility after 1 hour” value in data set [1] is 1350 µg/mL.
The same measure, in the same setting: as for `CCc1cc2c(cc1N1CCC(N3CCOCC3)CC1)C(C)(C)c1[nH]c3cc(C#N)ccc3c1C2=O.CS(=O)(=O)O` [Methane sulfonate salt, Form 15, Alectinib methane sulfonate salt], the figure is 1190 µg/mL.
Turning to Tosylate [reference compound], the “Solubility after 1 hour” value in data set [2] (setting [5]), in data set [2] (setting [4]) and in data set [2] (setting [6]) was 500 µg/mL each time.
For the compound `CCc1cc2c(cc1N1CCC(N3CCOCC3)CC1)C(C)(C)c1[nH]c3cc(C#N)ccc3c1C2=O.O=C(O)C=CC(=O)O` [Fumaric acid (1:1) salt, Form 6, Alectinib fumaric acid (1:1) salt], the “Solubility after 1 hour” value in data set [2] (setting [4]) came to 1220 µg/mL.
Same read-out and setting: next, `CCc1cc2c(cc1N1CCC(N3CCOCC3)CC1)C(C)(C)c1[nH]c3cc(C#N)ccc3c1C2=O.CCc1cc2c(cc1N1CCC(N3CCOCC3)CC1)C(C)(C)c1[nH]c3cc(C#N)ccc3c1C2=O.O=C(O)C=CC(=O)O` [Fumaric acid (2:1) salt, Form 2, Alectinib fumaric acid (2:1) salt]: 1230 µg/mL.
“Alectinib acetate salt [Acetate, Form 2]”: in data set [2] (setting [7]), the “Solubility after 1 hour” value is 870 µg/mL.
Turning to `CCc1cc2c(cc1N1CCC(N3CCOCC3)CC1)C(C)(C)c1[nH]c3cc(C#N)ccc3c1C2=O.O=C(O)C=CC(=O)O` [Hydrogen maleate salt, Form 1, Alectinib hydrogen maleate salt], the “Solubility after 1 hour” value in data set [2] (setting [3]) stood at 2380 µg/mL.
As for “Alectinib acetate salt [Acetate, Form 4]”, the “Solubility after 1 hour” value in data set [2] (setting [7]) worked out at 1220 µg/mL.
For the compound `CCc1cc2c(cc1N1CCC(N3CCOCC3)CC1)C(C)(C)c1[nH]c3cc(C#N)ccc3c1C2=O.O=C(O)C=CC(=O)O` [Fumaric acid (1:1) salt, Form 2, Alectinib fumaric acid (1:1) salt], the “Solubility after 1 hour” value in data set [2] (setting [4]) stood at 1300 µg/mL.
Regarding `CCc1cc2c(cc1N1CCC(N3CCOCC3)CC1)C(C)(C)c1[nH]c3cc(C#N)ccc3c1C2=O.Cl` [HCl, reference compound], the “Solubility after 1 hour” value in data set [2] (setting [5]), in data set [2] (setting [4]) and in data set [2] (setting [6]) was 370 µg/mL in each case.
